From patent publication US20030229067A1, “Pyrrolopyrimidine A2b selective antagonist compounds, their synthesis and use” (priority 2001, published 2003)

System: not given
Assay: not given
Settings: not given

melting point | SMILES
235 to 240 °C (dec.) | CC(=O)NCCNc1nc(-c2ccccc2)nc2[nH]c(C(=O)N3CCN(Cc4ccccc4)CC3)cc12 [26.14, N-{2-[6-(4-Benzylpiperazine-1-carbonyl)-2-phenyl-7H-pyrrolo[2,3-d]pyrimidin-4-ylamino]-ethyl}-acetamide]
135 to 145 °C (dec.) | CC(=O)NCCNc1nc(-c2ccccc2)nc2[nH]c(C(=O)N3CCC(C(O)c4ccc(F)cc4)CC3)cc12 (stereo not drawn) [26.29]
225 to 230 °C (dec.) | CC(=O)NCCNc1nc(-c2ccccc2)nc2[nH]c(C(=O)N3CCN(CCCN4CCOCC4)CC3)cc12 [26.12, N-(2-{6-[4-(3-Morpholin-4-ylpropyl)-piperazine-1-carbonyl]-2-phenyl-7H-pyrrolo[2,3-d]pyrimidin-4-ylamino}-ethyl)-acetamide]
156 to 159 °C (dec.) | CC(=O)NCCNc1nc(-c2ccccc2)nc2[nH]c(C(=O)N3CCCC(c4ccccc4)(c4ccccc4)C3)cc12 [26.26, N-{2-[6-(3,3-Diphenylpiperidine-1-carbonyl)-2-phenyl-7H-pyrrolo[2,3-d]pyrimidin-4-ylamino]-ethyl}-acetamide]
140 to 145 °C (dec.) | CC(=O)NCCNc1nc(-c2ccccc2)nc2[nH]c(C(=O)N3CCC(O)(Cc4ccccc4)CC3)cc12 [26.8, N-{2-[6-(4-Benzyl-4-hydroxypiperidine-1-carbonyl)-2-phenyl-7H-pyrrolo[2,3-d]pyrimidin-4-ylamino]-ethyl}-acetamide]
140 to 142 °C | CC(=O)NCCNc1nc(-c2ccccc2)nc2[nH]c(C(=O)Nc3cccc(Oc4ccccc4)c3)cc12 [26.20, 4-(2-Acetylaminoethylamino)-2-phenyl-7H-pyrrolo[2,3-d]pyrimidine-6-carboxylic acid (3-phenoxyphenyl)-amide]
120 to 125 °C | CC(=O)NCCNc1nc(-c2ccccc2)nc2[nH]c(C(=O)N3C[C@@H](C)NC[C@@H]3C)cc12 (relative stereo) [26.31, N-{2-[6-(trans-2,5-Dimethylpiperazine-1-carbonyl)-2-phenyl-7H-pyrrolo[2,3-d]pyrimidin-4-ylamino]-ethyl}-acetamide]
227 to 228 °C | CC(=O)NCCNc1nc(-c2ccccc2)nc2[nH]c(C(=O)N3CCN(CCOc4ccc(Cl)cc4)CC3)cc12 [26.16, N-[2-(6-{4-[2-(4-Chlorophenoxy)-ethyl]-piperazine-1-carbonyl}-2-phenyl-7H-pyrrolo[2,3-d]pyrimidin-4-ylamino)-ethyl]-acetamide]
270 to 273 °C | CC(=O)NCCNc1nc(-c2ccccc2)nc2[nH]c(C(=O)N3CCN(c4ccc(C(F)(F)F)cn4)CC3)cc12 [26.39, N-(2-{2-Phenyl-6-[4-(5-trifluoromethylpyridin-2-yl)-piperazine-1-carbonyl]-7H-pyrrolo[2,3-d]pyrimidin-4-ylamino}-ethyl)-acetamide]
134 to 137 °C | COC1(c2ccc(F)cc2)CCN(C(=O)c2cc3c(NCCNC(C)=O)nc(-c4ccccc4)nc3[nH]2)CC1 [26.48, N-(2-{6-[4-(4-Fluorophenyl)4-methoxypiperidine-1-carbonyl]-2-phenyl-7H-pyrrolo[2,3-d]pyrimidin-4-ylamino}-ethyl)-acetamide]
213 to 215 °C | CC(=O)NCCNc1nc(-c2ccccc2)nc2[nH]c(C(=O)N3CCN(CC#Cc4ccccc4)CC3)cc12 [26.21, N-(2-{2-Phenyl-6-[4-(3-phenylprop-2-ynyl)-piperazine-1-carbonyl]-7H-pyrrolo[2,3-d]pyrimidin-4-ylamino}-ethyl)-acetamide]
180 to 185 °C (dec.) | COC1(c2ccccc2Cl)CCN(C(=O)c2cc3c(NCCNC(=O)c4cc5c(NCCNC(C)=O)nc(-c6ccccc6)nc5[nH]4)nc(-c4ccccc4)nc3[nH]2)CC1 [26.51, 4-(2-Acetylaminoethylamino)-2-phenyl-7H-pyrrolo[2,3-d]pyrimidine-6-carboxylic acid (2-{6-[4-(2-chlorophenyl)-4-methoxypiperidine-1-carbonyl]-2-phenyl-7H-pyrrolo[2,3-d]pyrimidin-4-ylamino}-ethyl)-amide]
226 to 228 °C | CC(=O)NCCNc1nc(-c2ccccc2)nc2[nH]c(C(=O)N3CCN(CCc4ccccc4)CC3)cc12 [26.11, N-{2-[6-(4-Phenethylpiperazine-1-carbonyl)-2-phenyl-7H-pyrrolo[2,3-d]pyrimidin-4-ylamino]-ethyl}-acetamide]
172 to 175 °C | CC(=O)NCCNc1nc(-c2ccccc2)nc2[nH]c(C(=O)N3CC=C(c4ccc(Cl)cc4)CC3)cc12 [26.13, N-(2-{6-[4-(4-Chlorophenyl)-3,6-dihydro-2H-pyridine-17carbonyl]-2-phenyl-7H-pyrrolo[2,3-d]pyrimidin-4-ylamino}-ethyl)-acetamide]
225 to 228 °C | CC(=O)NCCNc1nc(-c2ccccc2)nc2[nH]c(C(=O)N3CCN(c4ncccc4C(F)(F)F)CC3)cc12 [26.37, N-(2-{2-Phenyl-6-[4-(3-trifluoromethylpyridin-2-yl)-piperazine-1-carbonyl]-7H-pyrrolo[2,3-d]pyrimidin-4-ylamino}-ethyl)-acetamide]

Target: T1, human A2B receptor (Homo sapiens, UniProt P29275)
T1 construct: expressed in transfected cells; membranes prepared from the cells
T1 sequence (P29275 1-332): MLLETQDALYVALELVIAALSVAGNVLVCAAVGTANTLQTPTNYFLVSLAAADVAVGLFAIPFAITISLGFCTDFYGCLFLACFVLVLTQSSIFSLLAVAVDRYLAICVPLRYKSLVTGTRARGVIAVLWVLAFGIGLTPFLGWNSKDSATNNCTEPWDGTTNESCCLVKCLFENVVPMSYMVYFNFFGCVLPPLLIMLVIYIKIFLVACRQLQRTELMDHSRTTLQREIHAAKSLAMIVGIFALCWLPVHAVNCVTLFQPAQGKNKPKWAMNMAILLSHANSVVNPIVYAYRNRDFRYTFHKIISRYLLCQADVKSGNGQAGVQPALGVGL
Assay: Radioligand binding assay ([3H]-DPCPX competition), membranes of HEK293 stably expressing human A2B receptor
Settings: [3H]-DPCPX competition binding
Description: Materials. [^3H]—DPCPX [cyclopentyl-1,3-dipropylxanthine] (120 Ci/mmol) was purchased from New England Nuclear (Boston, Mass.). The adenosine deaminase and complete protease inhibitor cocktail tablets were purchased from Boehringer Mannheim Corp. (Indianapolis, Ind.). Cell culture reagents were from Life Technologies (Grass Island, N.Y.) except for serum that was from Hyclone (Logan, Utah).
Cell line. HEK293 stably expressing the human A2B receptor were used for radioligand binding assays. Cells were grown in DMEM Glutamax containing 10% FBS, 0.2 mg/ml G418 at 37° C. in 5% CO2/95% atmosphere.
Membrane Preparation. Cells were washed with cold PBS buffer twice, scraped off the plates, and centrifuged at 1000×g for 5 minutes. Cells were homogenized with ice-cold buffer of 5 mM Tris, pH 7.4, 5 mM EDTA, 5 mM EGTA, protease inhibitor cocktail tablets and incubated for 10 min on ice. The homogenate was centrifuged at 32,000×g for 30 min. The membranes were resuspended in buffer of 50 mM Tris, pH 7.4, 0.6 mM EDTA, 5 mM MgCl2, stored at −80° C. until use. Protein concentration was determined by the methods of Bradford.
Radioligand binding assay. Membranes were homogenized in buffer containing 10 mM HEPES-KOH, pH 7.4 containing 1.0 mM EDTA; 2 U/ml adenosine deaminase; and 0.1 mM Benzamidine and incubated for 30 min at room temperature. Dissociation constants of radioligand (Kd values) and maximum binding sites (Bmax) were determined in saturation binding experiments. Saturation binding assays were carried out in a reaction mixture containing 50 μl of membrane suspension, 25 μl of 4% DMSO, 25 μl of increasing amounts of radioligand, [^3H]—DPCPX (final concentration 1-200 nM). […] Nonspecific binding was measured in the presence of […] NECA. Compounds were dissolved in
DMSO and then diluted with 4% DMSO; the final maximum DMSO concentrations were 1%. […] Reactions were terminated by rapid filtration over GF/C filters using a cell harvester. The filters were washed ten times with 0.4 ml of ice-cold buffer containing 10 mM HEPES-KOH, pH 7.4. The filters were dried, covered with scintillation fluid and counted with a TopCount.

Ki [nM] | SMILES
5 | CC(=O)NCCNc1nc(-c2ccccc2)nc2[nH]c(COC3CCN(CCc4ccccc4Cl)CC3)cc12 [17.7, N-[2-(6-{1-[2-(2-Chlorophenyl)ethyl]piperidin-4-yloxymethyl}-2-phenyl-7H-pyrrolo[2,3-d]pyrimidin-4-ylamino)ethyl]acetamide]

Same assay, conditions: binding assays, A2B vs A1, A2A, A3

receptor profile in words (selectivity listing) | SMILES
A1/A2B dual antagonist | CC(=O)NCCNc1nc(-c2ccccc2)nc2[nH]c(C(=O)N3CCN(c4ccc(Cl)cc4)CC3)cc12 [26.71, N-(2-{6-[4-(4-Chlorophenyl)-piperazine-1-carbonyl]-2-phenyl-7H-pyrrolo[2,3-d]pyrimidin-4-ylamino}-ethyl)-acetamide]

Same assay, conditions: fold selectivity A2B over A1, A2A and A3 receptors, binding assays

selectivity for the A2B receptor relative to the A1, A2A, and A3 receptor [×] | SMILES
26 | CC(=O)NCCNc1nc(-c2ccccc2)nc2[nH]c(COC3CCN(CCc4ccccc4Cl)CC3)cc12 [17.7, N-[2-(6-{1-[2-(2-Chlorophenyl)ethyl]piperidin-4-yloxymethyl}-2-phenyl-7H-pyrrolo[2,3-d]pyrimidin-4-ylamino)ethyl]acetamide]
33 | CC(=O)NCCNc1nc(-c2ccccc2)nc2[nH]c(C(=O)N3CCC(C#N)(c4ccccc4Cl)CC3)cc12.CS(=O)(=O)O [26.237.MsOH, N-(2-{6-[4-(2-Chlorophenyl)4-cyanopiperidine-1-carbonyl]-2-phenyl-7H-pyrrolo[2,3-d]pyrimidin-4-ylamino}-ethyl)-acetamide methanesulfonic acid salt]
19 | CC(=O)NCCNc1nc(-c2ccccc2)nc2[nH]c(C(=O)N3CCN(CCCc4ccc(Cl)cc4)CC3)cc12 [26.135, N-[2-(6-{4-[3-(4-Chlorophenyl)-propyl]-piperazine-1-carbonyl}-2-phenyl-7H-pyrrolo[2,3-d]pyrimidin-4-ylamino)-ethyl]-acetamide]
24 | CC(=O)NCCNc1nc(-c2ccccc2)nc2[nH]c(COC3CCN(CCc4ccccc4Cl)CC3)cc12.CS(=O)(=O)O [17.7.MsOH, N-[2-(-6-{1-[2-(2-Chlorophenyl)ethyl]piperidine-4-yloxymethyl}-2-phenyl-7H-pyrrolo[2,3-d]pyrimidin-4-ylamino)ethyl]acetamide methanesulfonic acid salt]
82 | CC(=O)NCCNc1nc(-c2ccccc2)nc2[nH]c(C(=O)N3CCN(c4ccc(Cl)cc4)CC3)cc12 [26.71, N-(2-{6-[4-(4-Chlorophenyl)-piperazine-1-carbonyl]-2-phenyl-7H-pyrrolo[2,3-d]pyrimidin-4-ylamino}-ethyl)-acetamide]
57 | CC(=O)NCCNc1nc(-c2ccccc2)nc2[nH]c(C(=O)N3CCC(C#N)(c4ccccc4Cl)CC3)cc12 [26.237, N-(2-{6-[4-(2-Chlorophenyl)-4-cyanopiperidine-1-carbonyl]-2-phenyl-7H-pyrrolo[2,3-d]pyrimidin-4-ylamino}-ethyl)-acetamide]
17 | CC(=O)NCCNc1nc(-c2ccccc2)nc2[nH]c(C(=O)N3CCN(CCCc4ccc(Cl)cc4)CC3)cc12.CS(=O)(=O)O [26.135.MsOH, N-[2-(6-{4-[3-(4-Chlorophenyl)-propyl]-piperazine-1-carbonyl}-2-phenyl-7H-pyrrolo[2,3-d]pyrimidin-4-ylamino)-ethyl]-acetamide methanesulfonate salt]
